Experimental data: publication PMC3494675, “Structure-Function Analysis of the Glioma Targeting NFL-TBS.40-63 Peptide Corresponding to the Tubulin-Binding Site on the Light Neurofilament Subunit” (PLoS ONE, 2012)
Square brackets hold non-standard residues; d marks the D form. Peptide text beside a SMILES is read from it. * marks the point of attachment. Biotin = O=C1N[C@H]2[C@H](CS[C@H]2CCCCC(=O)*)N1; pS = N[C@@H](COP(=O)(O)O)C(=O)O

Assays:
[1] = tested on: T98G human glioblastoma cells; test: Disintegration of the microtubule network in T98G cells (anti-tubulin immunostaining, cell counting); format: cell-based; conditions: 6 hours; for Disintegration of MT (% of cells): T98G cells, 10 µM biotinylated peptide, anti-tubulin immunostaining, minimum 200 cells per experiment, mean ± S.E.M., triplicated; for Effect on MT network of T98G / glioma cells (in words): 10 µM, immunocytochemistry
Description: (§1) Cells containing the biotinylated peptide were detected using Alexa-labeled avidin (green fluorescence) and those displaying a normal or a destroyed MT network were detected with an anti-tubulin antibody (red fluorescence) ( Figure 1A-B ). Then, we counted a minimum of 200 cells per slide containing or not the peptide, and with a normal or destroyed microtubule network ( Figure 1C ). As illustrated on Figure 1A glioblastoma cells contain a rich MT network. […] Cells were plated on cover slips and cultured in media containing biotinylated peptides (10 μM) for 6 hours. […] The cells were then incubated during 10 min in a 0.5% triton X-100 permeabilization solution, and washed 3 times in PBS. Next, they were incubated in a blocking solution (PBS 5% BSA) for 15 min, then incubated with mouse anti-ß-tubulin antibody (Sigma) 1/200 overnight. Tubulin and biotinylated peptides were localized using respectively Alexa 568 nm anti-mouse antibody and streptavidin Alexa 488 nm (Molecular Probes) 1/200 for 1 hour, followed by washing in PBS. […] Sigma) for 5 min, washed twice with PBS, then cover slips were mounted with an antifading solution. Observations were performed with an Olympus confocal microscope (BX50) using Fluoview.3.1. Software or a Leica DMI6000 inverted microscope and analyzed with Metamorph 7.1.7.0. software. We counted cells containing the peptide and cells displaying a destroyed MT network. Experiments were repeated at least three times, and a minimum of 200 cells was scored during each experiment.

[2] = tested on: T98G human glioblastoma cells; test: Peptide incorporation into T98G cells (immunocytochemistry, cell counting); format: cell-based; conditions: 6 hours; for Peptide incorporation (% of cells): T98G cells, 10 µM biotinylated peptide, Alexa-labeled avidin/streptavidin fluorescence microscopy, minimum 200 cells per experiment, mean ± S.E.M., triplicated; for Cell penetration / internalization in T98G cells (in words): 10 µM, immunocytochemistry, compared to original NFL-TBS.40-63
Description: as §1

| Compound | Disintegration of MT (% of cells) [1] | Peptide incorporation (% of cells) [2] | Cell penetration / internalization in T98G cells (in words) [2] | Effect on MT network of T98G / glioma cells (in words) [1] |
| --- | --- | --- | --- | --- |
| CC(C)C[C@H](NC(=O)[C@H](CO)NC(=O)[C@H](CO)NC(=O)[C@H](CO)NC(=O)[C@@H](NC(=O)[C@@H]1CCCN1C(=O)[C@H](C)NC(=O)[C@H](C)NC(=O)[C@H](Cc1ccc(O)cc1)NC(=O)[C@H](CO)NC(=O)[C@H](CO)NC(=O)[C@H](Cc1ccc(O)cc1)NC(=O)CCCC[C@@H]1SC[C@@H]2NC(=O)N[C@@H]21)C(C)C)C(=O)N[C@@H](CO)C(=O)N[C@H](C(=O)N[C@@H](CCCNC(=N)N)C(=O)N[C@@H](CCCNC(=N)N)C(=O)N[C@@H](CO)C(=O)N[C@@H](Cc1ccc(O)cc1)C(=O)N[C@@H](CO)C(=O)N[C@@H](CO)C(=O)N[C@@H](CO)C(=O)N[C@@H](CO)C(=O)NCC(=O)N[C@@H](CO)C(N)=O)C(C)C [Ser5Ala] (Biotin-YSSYAAPVSSSLSVRRSYSSSSGS-NH2) | 23.6±1.6 % of cells | 16.0±1.4 % of cells | – | – |
| CC(C)C[C@H](NC(=O)[C@H](CO)NC(=O)[C@H](CO)NC(=O)[C@H](C)NC(=O)[C@@H](NC(=O)[C@@H]1CCCN1C(=O)[C@H](C)NC(=O)[C@H](CO)NC(=O)[C@H](Cc1ccc(O)cc1)NC(=O)[C@H](CO)NC(=O)[C@H](CO)NC(=O)[C@H](Cc1ccc(O)cc1)NC(=O)CCCC[C@@H]1SC[C@@H]2NC(=O)N[C@@H]21)C(C)C)C(=O)N[C@@H](CO)C(=O)N[C@H](C(=O)N[C@@H](CCCNC(=N)N)C(=O)N[C@@H](CCCNC(=N)N)C(=O)N[C@@H](CO)C(=O)N[C@@H](Cc1ccc(O)cc1)C(=O)N[C@@H](CO)C(=O)N[C@@H](CO)C(=O)N[C@@H](CO)C(=O)N[C@@H](CO)C(=O)NCC(=O)N[C@@H](CO)C(N)=O)C(C)C [Ser9Ala] (Biotin-YSSYSAPVASSLSVRRSYSSSSGS-NH2) | 27.1±4.8 % of cells | 23.3±8.4 % of cells | penetrated in cells significantly although to a much lesser extent than the wt peptide | – |
| CC(C)C[C@H](NC(=O)[C@H](CO)NC(=O)[C@H](C)NC(=O)[C@H](CO)NC(=O)[C@@H](NC(=O)[C@@H]1CCCN1C(=O)[C@H](C)NC(=O)[C@H](CO)NC(=O)[C@H](Cc1ccc(O)cc1)NC(=O)[C@H](CO)NC(=O)[C@H](CO)NC(=O)[C@H](Cc1ccc(O)cc1)NC(=O)CCCC[C@@H]1SC[C@@H]2NC(=O)N[C@@H]21)C(C)C)C(=O)N[C@@H](CO)C(=O)N[C@H](C(=O)N[C@@H](CCCNC(=N)N)C(=O)N[C@@H](CCCNC(=N)N)C(=O)N[C@@H](CO)C(=O)N[C@@H](Cc1ccc(O)cc1)C(=O)N[C@@H](CO)C(=O)N[C@@H](CO)C(=O)N[C@@H](CO)C(=O)N[C@@H](CO)C(=O)NCC(=O)N[C@@H](CO)C(N)=O)C(C)C [Ser10Ala] (Biotin-YSSYSAPVSASLSVRRSYSSSSGS-NH2) | 32.9±1.9 % of cells | 34.5±0 % of cells | penetrated in cells significantly although to a much lesser extent than the wt peptide | – |
| CC(C)C[C@H](NC(=O)[C@H](C)NC(=O)[C@H](CO)NC(=O)[C@H](CO)NC(=O)[C@@H](NC(=O)[C@@H]1CCCN1C(=O)[C@H](C)NC(=O)[C@H](CO)NC(=O)[C@H](Cc1ccc(O)cc1)NC(=O)[C@H](CO)NC(=O)[C@H](CO)NC(=O)[C@H](Cc1ccc(O)cc1)NC(=O)CCCC[C@@H]1SC[C@@H]2NC(=O)N[C@@H]21)C(C)C)C(=O)N[C@@H](CO)C(=O)N[C@H](C(=O)N[C@@H](CCCNC(=N)N)C(=O)N[C@@H](CCCNC(=N)N)C(=O)N[C@@H](CO)C(=O)N[C@@H](Cc1ccc(O)cc1)C(=O)N[C@@H](CO)C(=O)N[C@@H](CO)C(=O)N[C@@H](CO)C(=O)N[C@@H](CO)C(=O)NCC(=O)N[C@@H](CO)C(N)=O)C(C)C [Ser11Ala] (Biotin-YSSYSAPVSSALSVRRSYSSSSGS-NH2) | 15.9±6.5 % of cells | 2.5±2.5 % of cells | – | – |
| CC(C)C[C@H](NC(=O)[C@H](CO)NC(=O)[C@H](CO)NC(=O)[C@H](CO)NC(=O)[C@@H](NC(=O)[C@@H]1CCCN1C(=O)[C@H](C)NC(=O)[C@H](CO)NC(=O)[C@H](Cc1ccc(O)cc1)NC(=O)[C@H](CO)NC(=O)[C@H](CO)NC(=O)[C@H](Cc1ccc(O)cc1)NC(=O)CCCC[C@@H]1SC[C@@H]2NC(=O)N[C@@H]21)C(C)C)C(=O)N[C@@H](C)C(=O)N[C@H](C(=O)N[C@@H](CCCNC(=N)N)C(=O)N[C@@H](CCCNC(=N)N)C(=O)N[C@@H](CO)C(=O)N[C@@H](Cc1ccc(O)cc1)C(=O)N[C@@H](CO)C(=O)N[C@@H](CO)C(=O)N[C@@H](CO)C(=O)N[C@@H](CO)C(=O)NCC(=O)N[C@@H](CO)C(N)=O)C(C)C [Ser13Ala] (Biotin-YSSYSAPVSSSLAVRRSYSSSSGS-NH2) | 16.6±5.2 % of cells | 12.2±0.8 % of cells | – | – |
| CC(C)C[C@H](NC(=O)[C@H](CO)NC(=O)[C@H](CO)NC(=O)[C@H](CO)NC(=O)[C@@H](NC(=O)[C@@H]1CCCN1C(=O)[C@H](C)NC(=O)[C@H](CO)NC(=O)[C@H](Cc1ccc(O)cc1)NC(=O)[C@H](CO)NC(=O)[C@H](CO)NC(=O)[C@H](Cc1ccc(O)cc1)NC(=O)CCCC[C@@H]1SC[C@@H]2NC(=O)N[C@@H]21)C(C)C)C(=O)N[C@@H](CO)C(=O)N[C@H](C(=O)N[C@@H](CCCNC(=N)N)C(=O)N[C@@H](CCCNC(=N)N)C(=O)N[C@@H](CC(=O)O)C(=O)N[C@@H](Cc1ccc(O)cc1)C(=O)N[C@@H](CC(=O)O)C(=O)N[C@@H](CO)C(=O)N[C@@H](CO)C(=O)N[C@@H](CO)C(=O)NCC(=O)N[C@@H](CO)C(N)=O)C(C)C [Ser17,19Asp] (Biotin-YSSYSAPVSSSLSVRRDYDSSSGS-NH2) | 18.6±6.8 % of cells | 29.0±12.7 % of cells | decreased internalization | not altered |
| CC(C)C[C@H](NC(=O)[C@H](CO)NC(=O)[C@H](CO)NC(=O)[C@H](CO)NC(=O)[C@@H](NC(=O)[C@@H]1CCCN1C(=O)[C@H](C)NC(=O)[C@H](CO)NC(=O)[C@H](Cc1ccc(O)cc1)NC(=O)[C@H](CO)NC(=O)[C@H](CO)NC(=O)[C@H](Cc1ccc(O)cc1)NC(=O)CCCC[C@@H]1SC[C@@H]2NC(=O)N[C@@H]21)C(C)C)C(=O)N[C@@H](CO)C(=O)N[C@H](C(=O)N[C@@H](CCCNC(=N)N)C(=O)N[C@@H](CCCNC(=N)N)C(=O)N[C@@H](COP(=O)(O)O)C(=O)N[C@@H](Cc1ccc(O)cc1)C(=O)N[C@@H](COP(=O)(O)O)C(=O)N[C@@H](CO)C(=O)N[C@@H](CO)C(=O)N[C@@H](CO)C(=O)NCC(=O)N[C@@H](CO)C(N)=O)C(C)C [Ser17,19SerP] (Biotin-YSSYSAPVSSSLSVRR[pS]Y[pS]SSSGS-NH2) | 11.0±3.0 % of cells | 32±2.1 % of cells | decreased internalization | not altered |
| CC(C)C[C@H](NC(=O)[C@H](CO)NC(=O)[C@H](CO)NC(=O)[C@H](CO)NC(=O)[C@@H](NC(=O)[C@@H]1CCCN1C(=O)[C@H](C)NC(=O)[C@H](CO)NC(=O)[C@H](Cc1ccc(O)cc1)NC(=O)[C@H](CO)NC(=O)[C@H](CO)NC(=O)[C@H](Cc1ccc(O)cc1)NC(=O)CCCC[C@@H]1SC[C@@H]2NC(=O)N[C@@H]21)C(C)C)C(=O)N[C@@H](CO)C(=O)N[C@H](C(=O)N[C@@H](CCCNC(=N)N)C(=O)N[C@@H](CCCNC(=N)N)C(=O)N[C@@H](C)C(=O)N[C@@H](Cc1ccc(O)cc1)C(=O)N[C@@H](CO)C(=O)N[C@@H](CO)C(=O)N[C@@H](CO)C(=O)N[C@@H](CO)C(=O)NCC(=O)N[C@@H](CO)C(N)=O)C(C)C [Ser17Ala] (Biotin-YSSYSAPVSSSLSVRRAYSSSSGS-NH2) | 18.1±4.4 % of cells | 4.6±1.8 % of cells | – | – |
| CC(C)C[C@H](NC(=O)[C@H](CO)NC(=O)[C@H](CO)NC(=O)[C@H](CO)NC(=O)[C@@H](NC(=O)[C@@H]1CCCN1C(=O)[C@H](C)NC(=O)[C@H](CO)NC(=O)[C@H](Cc1ccc(O)cc1)NC(=O)[C@H](CO)NC(=O)[C@H](CO)NC(=O)[C@H](Cc1ccc(O)cc1)NC(=O)CCCC[C@@H]1SC[C@@H]2NC(=O)N[C@@H]21)C(C)C)C(=O)N[C@@H](CO)C(=O)N[C@H](C(=O)N[C@@H](CCCNC(=N)N)C(=O)N[C@@H](CCCNC(=N)N)C(=O)N[C@@H](CC(=O)O)C(=O)N[C@@H](Cc1ccc(O)cc1)C(=O)N[C@@H](CO)C(=O)N[C@@H](CO)C(=O)N[C@@H](CO)C(=O)N[C@@H](CO)C(=O)NCC(=O)N[C@@H](CO)C(N)=O)C(C)C [Ser17Asp] (Biotin-YSSYSAPVSSSLSVRRDYSSSSGS-NH2) | 22.2±3.4 % of cells | 31.3±11.2 % of cells | decreased internalization | not altered |
